In PubChem BioAssay (NCI):
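Grown in 96-well plates, cells were treated for 48 hours with each compound at five concentrations. Insufficient inhibition: endpoint recorded as highest concentration tested. Here, GI50 denotes the concentration required for 50% inhibition of growth. TGI: total growth inhibition.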

Assays:
Assay in all cases: growth of human tumour cells (NCI), 48 h
SF-539 CNS = system: SF-539 CNS
SNB-75 CNS = system: SNB-75 CNS
RXF 393 renal = system: RXF 393 renal
KM12 colon = system: KM12 colon
SK-MEL-28 melanoma = system: SK-MEL-28 melanoma
HCT-15 colon = system: HCT-15 colon
BT-549 breast = system: BT-549 breast
SW-620 colon = system: SW-620 colon
NCI/ADR-RES ovarian = system: NCI/ADR-RES ovarian
UO-31 renal = system: UO-31 renal
K-562 leukemia = system: K-562 leukemia
HT29 colon = system: HT29 colon
NCI-H522 lung = system: NCI-H522 lung
CAKI-1 renal = system: CAKI-1 renal
MDA-MB-435 = system: MDA-MB-435
SK-OV-3 ovarian = system: SK-OV-3 ovarian
SF-268 CNS = system: SF-268 CNS
UACC-62 melanoma = system: UACC-62 melanoma
MOLT-4 leukemia = system: MOLT-4 leukemia
OVCAR-3 ovarian = system: OVCAR-3 ovarian
MALME-3M melanoma = system: MALME-3M melanoma
OVCAR-5 ovarian = system: OVCAR-5 ovarian
U251 CNS = system: U251 CNS
SK-MEL-2 melanoma = system: SK-MEL-2 melanoma
MCF7 breast = system: MCF7 breast
SN12C renal = system: SN12C renal
COLO 205 colon = system: COLO 205 colon
HL-60(TB) leukemia = system: HL-60(TB) leukemia
HOP-92 NSCLC = system: HOP-92 NSCLC

Question: Which results are given for `CC[C@@H](C(=O)[C@@H](C)[C@@H](O)[C@H](C)[C@@H]1O[C@@H]([C@@H](CC)C(=O)O)CC[C@@H]1C)C1O[C@]2(C=CC(=O)[C@]3(CC[C@@](C)([C@H]4CC[C@](O)(CC)[C@H](C)O4)O3)O2)[C@H](C)C[C@@H]1C` (some centres not stated)?
Answer: GI50 (SF-539 CNS): 334 nM; TGI (SF-539 CNS): 10400 nM; GI50 (SNB-75 CNS): 1210 nM; TGI (SNB-75 CNS): 7120 nM; GI50 (RXF 393 renal): 41.6 nM; TGI (RXF 393 renal): 1790 nM; GI50 (KM12 colon): 515 nM; TGI (KM12 colon): 6000 nM; GI50 (SK-MEL-28 melanoma): 1260 nM; TGI (SK-MEL-28 melanoma): 2530 nM; GI50 (HCT-15 colon): 644 nM; TGI (HCT-15 colon): 14300 nM; GI50 (BT-549 breast): 220 nM; TGI (BT-549 breast): 13100 nM; GI50 (SW-620 colon): 827 nM; TGI (SW-620 colon): 12800 nM; GI50 (NCI/ADR-RES ovarian): 766 nM; TGI (NCI/ADR-RES ovarian): 21100 nM; GI50 (UO-31 renal): 1190 nM; TGI (UO-31 renal): 11000 nM; GI50 (K-562 leukemia): 371 nM; TGI (K-562 leukemia): > 27400 nM; GI50 (HT29 colon): 279 nM; TGI (HT29 colon): 16200 nM; GI50 (NCI-H522 lung): 52 nM; TGI (NCI-H522 lung): 3640 nM; GI50 (CAKI-1 renal): 765 nM; TGI (CAKI-1 renal): 11800 nM; GI50 (MDA-MB-435): 1210 nM; TGI (MDA-MB-435): 2800 nM; GI50 (SK-OV-3 ovarian): 3700 nM; TGI (SK-OV-3 ovarian): 16000 nM; GI50 (SF-268 CNS): 2120 nM; TGI (SF-268 CNS): 15700 nM; GI50 (UACC-62 melanoma): 1290 nM; TGI (UACC-62 melanoma): 2670 nM; GI50 (MOLT-4 leukemia): 1420 nM; TGI (MOLT-4 leukemia): 6300 nM; GI50 (OVCAR-3 ovarian): 54.7 nM; TGI (OVCAR-3 ovarian): 12500 nM; GI50 (MALME-3M melanoma): 163 nM; TGI (MALME-3M melanoma): 774 nM; GI50 (OVCAR-5 ovarian): 734 nM; TGI (OVCAR-5 ovarian): 21500 nM; GI50 (U251 CNS): 79.1 nM; TGI (U251 CNS): 13300 nM; GI50 (SK-MEL-2 melanoma): 1040 nM; TGI (SK-MEL-2 melanoma): 7030 nM; GI50 (MCF7 breast): 66.9 nM; TGI (MCF7 breast): 12800 nM; GI50 (SN12C renal): 179 nM; TGI (SN12C renal): 15000 nM; GI50 (COLO 205 colon): 159 nM; TGI (COLO 205 colon): 2100 nM; GI50 (HL-60(TB) leukemia): 39.9 nM; TGI (HL-60(TB) leukemia): 332 nM; GI50 (HOP-92 NSCLC): 1330 nM
